Literature values, collected in patent US20080221211A1, “METHOD OF TREATMENT OF NEUROLOGICAL INJURY OR CANCER BY ADMINISTRATION OF DICHLOROACETATE” (priority 2007, published 2008).

Columns and labels:
tumors = conditions: rat model
cancer cell lines = conditions: restored mitochondrial function and apoptosis
[1] = in vivo
[2] = test system: infarct size after stroke; conditions: rat; given within 2.25 hours of a stroke
[3] = test system: cytochome oxidase activity in primary neurons
infarct size = conditions: rat pMCAo model; infusion

O=C(O)C(Cl)Cl [DCA, dichloroacetic acid]
effect on tumors in rats (tumors): shrinking the tumors in rats | effect on cancer cells in vitro (cancer cell lines): killing cancer cells in vitro | reported adverse effect [1]: neuropathy

CC(C)(C)[N+]([O-])=Cc1ccc(S(=O)(=O)[O-])cc1S(=O)(=O)[O-].[Na+].[Na+] [NXY-059]
effect on infarct size [2]: reduces infarct size

NC1=N[C@H](O)[C@H]2[C@H]3O[C@]4(O)O[C@@H]([C@@H](O)[C@@]2(N1)[C@@H]4O)[C@]3(O)CO [TTX, tetrodotoxin]
effect on cytochrome oxidase activity [3]: reduces cytochome oxidase activity

VEGF
effect on infarct size (infarct size): reduction of infarct size
